From patent US6770659B2, “Benzoyl piperidine compounds” (SK Corporation, priority 2002, dated 2004) come the findings set out here.

The assay deals with climbing behavior induced by apomorphine in mice. Put plainly: Climbing Mouse Assay (anti-climbing behavior test). The assay is classed as in vivo. As to conditions: ICR CD strain male mice, apomorphine challenge; for ED50: Mus musculus. From the text:
This activity was examined through the anti-climbing behavior test, i.e. the test for suppressing the climbing behavior induced by apomorphine in mice. A designated amount of the test compound was intraperitoneally or orally administered to several groups of ICR CD strain male mice (body weight, 20 to 25 g; one group, 6 mice), and each of the animals was charged in an individual column cage of 12 cm in diameter and 14 cm in height having metal poles (each pole, 2 mm in diameter) vertically installed and arranged along the periphery with interval of 1 cm.
Compounds to be tested for antipsychotic activity are injected intraperitoneally or given orally at various time intervals, e.g. 30 minutes, 60 minutes, etc., prior to the apomorphine challenge at a screening dose of 0.1-60 mg/kg.
For evaluation of climbing, 3 readings are taken at 10, 20 and 30 minutes after apomorphine administration according to the following scale:
Mice consistently climbing before the injection of apomorphine will be discarded.
With full-developed apomorphine climbing, the animals are hanging on to the cage walls, rather motionless, over longer periods of time. By contrast, climbing due to mere motor stimulation usually only lasts a few seconds.
The climbing scores are individually totaled (maximal score: 12 per mouse over 3 readings) and the total score of the control group (vehicle intraperitoneally-apomorphine subcutaneously) is set to 100%. ED50 values with 95% confidence limits, calculated by a linear regression analysis, of some of the compounds of the instant invention as well as a standard antipsychotic agent are presented in Table I.

Where [1] appears, read: intraperitoneal administration, read-out: Climbing Mouse Assay ED50 i.p.
[2] abbreviates: oral administration, read-out: Climbing Mouse Assay ED50 p.o. (converted).

Structures are written as SMILES. Like-named read-outs stand apart in the source and are kept apart here.

The term ED50 denotes the dose that gives a 50% effect, or the effect in half of the subjects.

`CC(C)c1ccc(C(CN2CCC(C(=O)c3ccc(F)cc3)CC2)n2cncn2)cc1.Cl.Cl.Cl` (centres unmarked) [(4-Fluoro-phenyl)-{1-[2-(4-isopropyl-phenyl)-2-[1,2,4]triazoyl-1-yl-ethyl]-piperidin-4-yl}-methanone trihydrochloride]: the “Climbing Mouse Assay ED50 i.p.” value (intraperitoneal administration) is on record as 3.1 mg/kg. In addition, the “Climbing Mouse Assay ED50 p.o.” value (oral administration) is 4.7 mg/kg.
`COC(CN1CCC(C(=O)c2ccc(F)cc2)CC1)c1ccc(C(C)C)cc1` (centres unmarked) [(4-Fluoro-phenyl)-{1-[2-(4-isopropyl-phenyl)-2-methoxy-ethyl]-piperidin-4-yl}-methanone]: the median effective dose (ED50) under setting [1] was found to be 0.17 mg/kg and the ED50 under setting [2] is 0.41 mg/kg.
Taken in the same sequence, the figures for `COC(CN1CCC(C(=O)c2ccc(F)cc2)CC1)c1ccc([N+](=O)[O-])cc1.Cl` (centres unmarked) [(4-Fluoro-phenyl)-{1-[2-methoxy-2-(4-nitro-phenyl)-ethyl]-piperidin-4yl}-methanone; hydrochloride] were 5.9 mg/kg and 51.2 mg/kg.
Take `CO[C@@H](CN1CCC(C(=O)c2ccc(F)cc2)CC1)c1ccc([N+](=O)[O-])cc1` [(R)-(4-Fluoro-phenyl)-{1-[2-methoxy-2-(4-nitro-phenyl)-ethyl]-piperidin-4-yl}-methanone]: the ED50 under setting [1] is 24.2 mg/kg.
Regarding `Cl.NC(=O)O[C@@H](CN1CCC(C(=O)c2ccc(F)cc2)CC1)c1ccccc1` [(R)-Carbamic acid 2-[4-(4-fluoro-benzoyl)-piperidin-1-yl]-1-phenyl-ethyl ester; hydrochloride], the 50% effective dose (ED50) is 17.8 mg/kg under setting [1] and 46.2 mg/kg under setting [2].
Taken in the same sequence, the figures for `CO[C@H](CN1CCC(C(=O)c2ccc(F)cc2)CC1)c1ccc(C(C)C)cc1` [(S)-(4-Fluoro-phenyl)-{1-[2-(4-isopropyl-phenyl)-2-methoxy-ethyl]-piperidin-4-yl}-methanone] were 0.13 mg/kg and 0.09 mg/kg.
In the same order, the values of `CO[C@H](CN1CCC(C(=O)c2ccc(F)cc2)CC1)c1ccc([N+](=O)[O-])cc1` [(S)-(4-Fluoro-phenyl)-{1-[2-methoxy-2-(4-nitro-phenyl)-ethyl]-piperidin-4-yl}-methanone] are 4.5 mg/kg and 16.9 mg/kg.
For `Cl.NC(=O)O[C@H](CN1CCC(C(=O)c2ccc(F)cc2)CC1)c1ccccc1` [(S)-Carbamic acid 2-[4-(4-fluoro-benzoyl)-piperidin-1-yl]-1-phenyl-ethyl ester; hydrochloride], the ED50 was 0.96 mg/kg under setting [1] and 4.3 mg/kg under setting [2].
In the same order, the values of `CCc1ccc([C@@H](CN2CCC(C(=O)c3ccc(F)cc3)CC2)OC)cc1` [(S)-{1-[2-(4-Ethyl-phenyl)-2-methoxy-ethyl]-piperidin-4-yl}-(4-fluoro-phenyl)-methanone] are 0.31 mg/kg and 1.2 mg/kg.
With `O=C(c1ccc(F)cc1)C1CCN(CC(COc2ccccc2)OC(=O)N2CCCCCC2)CC1` (centres unmarked) [Azepane-1-carboxylic acid 1-[4-(4-fluoro-benzoyl)-piperidin-1-ylmethyl]-2-phenoxy-ethyl ester], the ED50 under setting [1] is 1.5 mg/kg.
For `Cl.O=C(NCc1ccccc1)OC(CN1CCC(C(=O)c2ccc(F)cc2)CC1)c1ccccc1` (centres unmarked) [Benzyl-carbamic acid 2-[4-(4-fluoro-benzoyl)-piperidin-1-yl]-1-phenyl-ethyl ester; hydrochloride], the 50% effective dose (ED50) by setting is: under setting [1], 2.2 mg/kg; under setting [2], 7.1 mg/kg.
On to `Cl.NC(=O)OC(CN1CCC(C(=O)c2ccc(F)cc2)CC1)c1ccc(Cl)c(Cl)c1` (centres unmarked) [Carbamic acid 1-(3,4-dichloro-phenyl)-2-[4-(4-fluoro-benzoyl)-piperidin-1-yl]-ethyl ester; hydrochloride], for which the median effective dose (ED50) reads like this: under setting [1], 0.32 mg/kg; under setting [2], 0.48 mg/kg.
Taken in the same sequence, the figures for `Cl.NC(=O)OC(CN1CCC(C(=O)c2ccc(F)cc2)CC1)c1cccc(Cl)c1` (centres unmarked) [Carbamic acid 1-(3-chloro-phenyl)-2-[4-(4-fluoro-benzoyl)-piperidin-1-yl]-ethyl ester; hydrochloride] were 0.56 mg/kg and 0.94 mg/kg.
With `Cl.NC(=O)OC(COc1ccccc1)CN1CCC(C(=O)c2ccc(F)cc2)CC1` (centres unmarked) [Carbamic acid 1-[4-(4-fluoro-benzoyl)-piperidin-1-ylmethyl]-2-phenoxy-ethyl ester; hydrochloride], the 50% effective dose (ED50) was 2 mg/kg under setting [1] and 8.5 mg/kg under setting [2].
Turning to `Cl.NC(=O)OC(CN1CCC(C(=O)c2ccc(F)cc2)CC1)c1cccc([N+](=O)[O-])c1` (centres unmarked) [Carbamic acid 2-[4-(4-fluoro-benzoyl)-piperidin-1-yl]-1-(3-nitro-phenyl)-ethyl ester; hydrochloride], the ED50 under setting [1] was determined as 2.6 mg/kg.
As to `Cl.NC(=O)OC(CN1CCC(C(=O)c2ccc(F)cc2)CC1)c1ccc(C(F)(F)F)cc1` (centres unmarked) [Carbamic acid 2-[4-(4-fluoro-benzoyl)-piperidin-1-yl]-1-(4-trifluoromethyl-phenyl)-ethyl ester; hydrochloride], under setting [1], the ED50 came out at 1.8 mg/kg.
With `Cl.NC(=O)OC(CN1CCC(C(=O)c2ccc(F)cc2)CC1)c1ccccc1` (centres unmarked) [Carbamic acid 2-[4-(4-fluoro-benzoyl)-piperidin-1-yl]-1-phenyl-ethyl ester; hydrochloride], the ED50 is 4.8 mg/kg under setting [1] and 9.7 mg/kg under setting [2].
Turning to `CC(C)OC(=O)OC(CN1CCC(C(=O)c2ccc(F)cc2)CC1)c1cccc(Cl)c1` (centres unmarked) [Carbonic acid 1-(3-chloro-phenyl)-2-[4-(4-fluoro-benzoyl)-piperidin-1-yl]-ethyl ester isopropyl ester], the 50% effective dose (ED50) under setting [1] is 6.2 mg/kg.
For the compound `CCc1ccc(C(CN2CCC(C(=O)c3ccc(F)cc3)CC2)OC(=O)OC)cc1` (centres unmarked) [Carbonic acid 1-(4-ethyl-phenyl)-2-[4-(4-fluoro-benzoyl)-piperidin-1-yl]-ethyl ester methyl ester], the ED50 reads like this: under setting [1], 2.4 mg/kg; under setting [2], 7.6 mg/kg.
In the same order, the values of `CN1CCN(C2=Nc3cc(Cl)ccc3Nc3ccccc32)CC1` [Clozapine, reference compound] are 6.3 mg/kg and 13.5 mg/kg.
Taken in the same sequence, the figures for `Cc1nc2n(c(=O)c1CCN1CCC(c3noc4cc(F)ccc34)CC1)CCCC2` [Risperidone, reference compound] were 0.11 mg/kg and 0.29 mg/kg.
In the same order, the values of `Cc1ccc(C(CN2CCC(C(=O)c3ccc(F)cc3)CC2)n2cncn2)cc1C` (centres unmarked) [{1-[2-(3,4-Dimethyl-phenyl)-2-[1,2,4]triazol-1-yl-ethyl]-piperidin-4-yl}-(4-fluoro-phenyl)-methanone] are 4.5 mg/kg and 16.6 mg/kg.
With `CCc1ccc(C(CN2CCC(C(=O)c3ccc(F)cc3)CC2)OC)cc1` (centres unmarked) [{1-[2-(4-Ethyl-phenyl)-2-methoxy-ethyl]-piperidin-4-yl}-(4-fluoro-phenyl)-methanone], the ED50 under setting [1] was determined as 0.87 mg/kg.
As for `CCOC(CN1CCC(C(=O)c2ccc(F)cc2)CC1)c1ccc([N+](=O)[O-])cc1` (centres unmarked) [{1-[2-Ethoxy-2-(4-nitro-phenyl)-ethyl]-piperidin-4-yl}-(4-fluoro-1phenyl)-methanone], the “Climbing Mouse Assay ED50 i.p.” value (intraperitoneal administration) was 4.16 mg/kg.
